Source: article PMC10221175

How the values were obtained:
[1] = system: 5′-FAM-AT11-L0-TAMRA-3′ (DNA, G4) TGGTGGTGGTTGTTGGGTGGTGGTGGT; experiment: FRET melting; conditions: 65 mM KCl, 20 mM potassium phosphate, pH 6.9, 0.2 µM DNA
[2] = system: 5′-Cy5-AT11-L0 (DNA, G4) TGGTGGTGGTTGTTGGGTGGTGGTGGT; experiment: fluorescence titration (Cy5 quenching), Hill model; conditions: 65 mM KCl, 20 mM potassium phosphate; pH 6.9; 1 µM DNA; apparent
[3] = system: 5′-Cy5-AT11-L0 (DNA, G4) TGGTGGTGGTTGTTGGGTGGTGGTGGT; experiment: fluorescence titration (Cy5 quenching), two-site model; conditions: 65 mM KCl, 20 mM potassium phosphate; pH 6.9; 1 µM DNA; site 1 of 2; apparent
[4] = target: T1, nucleolin RBD1,2 (NCL RBD1,2) (UniProt P19338 307-466); experiment: fluorescence titration (Cy5 quenching); ligand C8; two-site model, KD1; aptamer pre-annealed in 20 mM potassium phosphate pH 6.9, 65 mM KCl (95 C 10 min, ice 10 min); titration temperature not given in the material; conditions: protein: recombinant; label: 5'-Cy5; parallel G4, pre-folded in K+
[5] = target: T1, nucleolin RBD1,2 (NCL RBD1,2); experiment: fluorescence titration (Cy5 quenching); no ligand; two-site model, KD1; aptamer pre-annealed in 20 mM potassium phosphate pH 6.9, 65 mM KCl (95 C 10 min, ice 10 min); titration temperature not given in the material; conditions: protein: recombinant; label: 5'-Cy5; parallel G4, pre-folded in K+
[6] = target: T1, nucleolin RBD1,2 (NCL RBD1,2); experiment: fluorescence titration (Cy5 quenching); ligand PhenDC3; two-site model, KD1; aptamer pre-annealed in 20 mM potassium phosphate pH 6.9, 65 mM KCl (95 C 10 min, ice 10 min); titration temperature not given in the material; conditions: protein: recombinant; label: 5'-Cy5; parallel G4, pre-folded in K+

T1 sequence (P19338 307-466): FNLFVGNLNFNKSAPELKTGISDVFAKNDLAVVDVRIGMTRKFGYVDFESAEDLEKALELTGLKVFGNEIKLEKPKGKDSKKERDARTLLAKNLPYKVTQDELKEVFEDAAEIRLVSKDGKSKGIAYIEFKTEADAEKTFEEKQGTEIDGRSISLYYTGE

## CN(C)c1ccc(Nc2c3ccc(NC(=O)CCN4CCCC4)cc3nc3cc(NC(=O)CCN4CCCC4)ccc23)cc1
[1]; 1 µM compound (5 eq)
  ΔTm: 20.3 °C

## CN(C)c1ccc2cc3ccc(N(C)C)cc3[n+](CCCCCCCCNC(=O)c3ccc(I)cc3)c2c1
[1]; 1 µM compound (5 eq)
  ΔTm: 19.6 °C
[2]
  KD: 22.1 nM

## C[C@@H]1C[C@H]2[C@@H]3CCC4=CC(=O)C=C[C@]4(C)[C@@]3(F)[C@@H](O)C[C@]2(C)[C@@]1(O)C(=O)CO
[1]; 0.2 µM compound (1 eq)
  ΔTm: 0.1 °C

## C[n+]1cc(NC(=O)c2ccc3ccc4ccc(C(=O)Nc5cc6ccccc6[n+](C)c5)nc4c3n2)cc2ccccc21
[1]; 1 µM compound (5 eq)
  ΔTm: > 30 °C
[3]
  KD1: 329 pM

## C[n+]1ccc(-c2c3nc(c(-c4cc[n+](C)cc4)c4ccc([nH]4)c(-c4cc[n+](C)cc4)c4nc(c(-c5cc[n+](C)cc5)c5ccc2[nH]5)C=C4)C=C3)cc1
[1]; 1 µM compound (5 eq)
  ΔTm: 28 °C

## NCCOc1cc(C(=O)Nc2cc(OCCN)c3ccccc3n2)nc(C(=O)Nc2cc(OCCN)c3ccccc3n2)c1
[1]; 1 µM compound (5 eq)
  ΔTm: 26.9 °C

B1: 5'-Cy5-AT11-L0 (structured_DNA)
DNA: TGGTGGTGGTTGTTGGGTGGTGGTGGT
[4]
  Kd: 0.024 nM
[5]
  Kd: 0.012 nM
[6]
  Kd: 0.02 nM
